Measured values published in ChEMBL document CHEMBL1201862, “PubChem BioAssay data set” (2004).
Active and inactive are the calls of the source.

Key:
[1] = biological target: Latent membrane protein 1 (Human herpesvirus 4 (strain B95-8), UniProt P03230); assay: LMP1 TES1 pathway selectivity over dsRED control – imaging, HEK293T, dual-color eGFP/dsRED, cherry-picks, selectivity assay for LMP1 NF-kB inhibitor project, dose response (AID 588398); assay type: functional, cell-based
[2] = Counterscreen for antagonists of the orexin 1 receptor (OX1R; HCRTR1): Fluorescence-based cell-based high throughput dose response assay to identify antagonists of the parental CHO cell line. [Related pubchem assays (depositor defined):AID434989, AID435008, AID463079, AID485270, AID492963, AID492964, AID492965, AID493232, AID504699, AID504701]; assay type: functional
Orexin receptor type 2 [3] = biological target: T1, Orexin receptor type 2 (Homo sapiens, UniProt O43614); assay: Counterscreen assay for antagonists of the orexin 1 receptor (OX1R; HCRTR1): Fluorescence-based cell-based dose response assay for antagonists of the orexin 2 receptor (OX2R; HCRTR2), run by assay provider.; assay type: functional
T1 sequence (O43614 whole entry): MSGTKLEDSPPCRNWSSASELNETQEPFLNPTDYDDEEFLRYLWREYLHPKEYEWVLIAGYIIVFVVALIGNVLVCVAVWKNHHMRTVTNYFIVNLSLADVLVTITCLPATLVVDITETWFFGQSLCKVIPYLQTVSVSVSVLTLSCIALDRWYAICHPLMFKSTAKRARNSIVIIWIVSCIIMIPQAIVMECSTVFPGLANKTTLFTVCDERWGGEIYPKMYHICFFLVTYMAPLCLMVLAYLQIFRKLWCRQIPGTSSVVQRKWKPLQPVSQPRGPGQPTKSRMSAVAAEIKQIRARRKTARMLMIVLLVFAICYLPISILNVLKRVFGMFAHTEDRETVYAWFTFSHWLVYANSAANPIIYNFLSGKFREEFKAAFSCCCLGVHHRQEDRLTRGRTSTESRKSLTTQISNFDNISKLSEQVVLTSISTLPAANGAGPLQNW

Orexin receptor type 2 [4] = biological target: T1, Orexin receptor type 2; assay: Counterscreen assay for antagonists of the orexin 1 receptor (OX1R; HCRTR1): Homogeneous Time Resolved Fluorescence (HTRF)-based cell-based dose response assay for antagonists of the orexin 2 receptor (OX2R; HCRTR2), run by assay provider.; assay type: functional
[5] = biological target: T2, Orexin/Hypocretin receptor type 1 (Homo sapiens, UniProt O43613); assay: Fluorescence-based cell-based high throughput dose response assay for antagonists of the orexin 1 receptor (OX1R; HCRTR1). [Related pubchem assays (depositor defined):AID434989, AID435008, AID463079, AID485270, AID492963, AID492964, AID492965, AID493232, AID504717, AID504718]; assay type: functional
T2 sequence (O43613 whole entry): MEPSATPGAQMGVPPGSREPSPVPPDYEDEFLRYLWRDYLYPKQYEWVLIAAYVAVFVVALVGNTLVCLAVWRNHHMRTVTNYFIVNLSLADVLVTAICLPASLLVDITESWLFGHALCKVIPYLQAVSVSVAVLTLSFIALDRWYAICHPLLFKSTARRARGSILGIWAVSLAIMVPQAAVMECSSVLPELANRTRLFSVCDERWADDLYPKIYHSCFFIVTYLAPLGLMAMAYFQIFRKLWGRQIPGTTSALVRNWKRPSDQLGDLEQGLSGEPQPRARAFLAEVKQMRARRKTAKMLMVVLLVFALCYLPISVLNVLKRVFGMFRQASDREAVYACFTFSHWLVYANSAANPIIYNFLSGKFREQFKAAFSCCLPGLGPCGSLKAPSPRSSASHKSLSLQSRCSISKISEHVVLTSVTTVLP

CHO-K1 = assay: Counterscreen for antagonists of the orexin 1 receptor (OX1R; HCRTR1): Homogeneous time resolved fluorescence (HTRF)-based cell-based dose response assay to identify antagonists of the parental CHO-K1 cell line. [Related pubchem assays (depositor defined):AID434989, AID435008, AID463079, AID485270, AID492963, AID492964, AID492965, AID493232, AID504699, AID504701]; assay type: functional; conditions: Cricetulus griseus
[6] = biological target: T2, Orexin/Hypocretin receptor type 1; assay: Homogeneous Time Resolved Fluorescence (HTRF)-based cell-based high throughput dose response assay for antagonists of the orexin 1 receptor (OX1R; HCRTR1). [Related pubchem assays (depositor defined):AID434989, AID435008, AID463079, AID485270, AID492963, AID492964, AID492965, AID493232, AID504717, AID504718]; assay type: functional
[7] = biological target: T3, High affinity choline transporter 1 (Homo sapiens, UniProt Q9GZV3); assay: human choline transporter potentiators, potency – cell-based, 10-point CRC, membrane potential dye, dose response (AID 602376); assay type: functional
T3 sequence (Q9GZV3 whole entry): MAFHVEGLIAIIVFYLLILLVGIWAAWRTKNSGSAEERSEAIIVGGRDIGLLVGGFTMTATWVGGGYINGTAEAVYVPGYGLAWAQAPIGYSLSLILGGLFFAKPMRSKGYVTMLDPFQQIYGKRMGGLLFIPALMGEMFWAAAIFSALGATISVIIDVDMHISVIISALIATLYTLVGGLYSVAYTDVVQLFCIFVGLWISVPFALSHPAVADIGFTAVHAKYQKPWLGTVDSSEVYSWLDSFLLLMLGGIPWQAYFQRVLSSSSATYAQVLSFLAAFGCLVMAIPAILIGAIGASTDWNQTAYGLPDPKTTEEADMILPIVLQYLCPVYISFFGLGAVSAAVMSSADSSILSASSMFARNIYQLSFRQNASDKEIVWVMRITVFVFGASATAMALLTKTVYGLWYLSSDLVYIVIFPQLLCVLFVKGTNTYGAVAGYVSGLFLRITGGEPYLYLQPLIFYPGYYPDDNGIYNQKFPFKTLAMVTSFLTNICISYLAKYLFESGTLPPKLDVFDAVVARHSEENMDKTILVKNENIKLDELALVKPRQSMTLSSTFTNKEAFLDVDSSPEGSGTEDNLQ

[8] = biological target: T4, Sentrin-specific protease 6 (Homo sapiens, UniProt Q9GZR1); assay: SAR Analysis of small molecule inhibitors of Sentrin-specific protease 6 (SENP6) using a Luminescent assay. [Related pubchem assays (depositor defined):AID2582, AID2599]; assay type: functional
T4 sequence (Q9GZR1 whole entry): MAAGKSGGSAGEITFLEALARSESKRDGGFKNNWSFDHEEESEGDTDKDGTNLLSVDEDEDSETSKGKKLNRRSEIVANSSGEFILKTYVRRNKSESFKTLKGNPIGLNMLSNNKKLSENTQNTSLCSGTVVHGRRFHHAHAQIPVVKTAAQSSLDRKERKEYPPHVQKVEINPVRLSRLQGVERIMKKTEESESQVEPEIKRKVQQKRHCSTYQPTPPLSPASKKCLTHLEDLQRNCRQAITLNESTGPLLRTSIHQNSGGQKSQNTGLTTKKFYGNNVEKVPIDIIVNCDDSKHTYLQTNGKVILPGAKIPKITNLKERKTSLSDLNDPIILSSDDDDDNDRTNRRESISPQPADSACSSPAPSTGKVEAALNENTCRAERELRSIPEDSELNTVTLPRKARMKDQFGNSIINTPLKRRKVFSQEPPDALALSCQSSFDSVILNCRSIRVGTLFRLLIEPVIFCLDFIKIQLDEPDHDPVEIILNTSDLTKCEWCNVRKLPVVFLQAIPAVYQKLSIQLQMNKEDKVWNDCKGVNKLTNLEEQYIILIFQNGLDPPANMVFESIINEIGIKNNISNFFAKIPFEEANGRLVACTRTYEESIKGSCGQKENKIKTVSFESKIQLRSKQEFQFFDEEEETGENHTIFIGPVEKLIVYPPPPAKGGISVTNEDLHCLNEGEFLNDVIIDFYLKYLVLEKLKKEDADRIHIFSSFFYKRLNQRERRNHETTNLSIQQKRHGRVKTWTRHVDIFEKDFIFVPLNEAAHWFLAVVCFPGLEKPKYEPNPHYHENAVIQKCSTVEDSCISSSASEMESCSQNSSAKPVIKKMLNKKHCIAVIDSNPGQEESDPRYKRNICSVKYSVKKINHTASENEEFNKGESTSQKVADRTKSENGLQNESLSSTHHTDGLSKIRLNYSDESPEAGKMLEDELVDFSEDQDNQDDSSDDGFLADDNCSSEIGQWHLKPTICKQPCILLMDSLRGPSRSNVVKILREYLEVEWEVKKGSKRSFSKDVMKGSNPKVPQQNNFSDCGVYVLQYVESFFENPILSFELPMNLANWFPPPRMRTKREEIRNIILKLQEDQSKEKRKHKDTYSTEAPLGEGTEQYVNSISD

[9] = biological target: T5, Sentrin-specific protease 7 (Homo sapiens, UniProt Q9BQF6); assay: inhibition of human SENP7 cleavage activity – biochemical, luminescence, SAR follow-up (AID 504497); assay type: functional
T5 sequence (Q9BQF6 whole entry): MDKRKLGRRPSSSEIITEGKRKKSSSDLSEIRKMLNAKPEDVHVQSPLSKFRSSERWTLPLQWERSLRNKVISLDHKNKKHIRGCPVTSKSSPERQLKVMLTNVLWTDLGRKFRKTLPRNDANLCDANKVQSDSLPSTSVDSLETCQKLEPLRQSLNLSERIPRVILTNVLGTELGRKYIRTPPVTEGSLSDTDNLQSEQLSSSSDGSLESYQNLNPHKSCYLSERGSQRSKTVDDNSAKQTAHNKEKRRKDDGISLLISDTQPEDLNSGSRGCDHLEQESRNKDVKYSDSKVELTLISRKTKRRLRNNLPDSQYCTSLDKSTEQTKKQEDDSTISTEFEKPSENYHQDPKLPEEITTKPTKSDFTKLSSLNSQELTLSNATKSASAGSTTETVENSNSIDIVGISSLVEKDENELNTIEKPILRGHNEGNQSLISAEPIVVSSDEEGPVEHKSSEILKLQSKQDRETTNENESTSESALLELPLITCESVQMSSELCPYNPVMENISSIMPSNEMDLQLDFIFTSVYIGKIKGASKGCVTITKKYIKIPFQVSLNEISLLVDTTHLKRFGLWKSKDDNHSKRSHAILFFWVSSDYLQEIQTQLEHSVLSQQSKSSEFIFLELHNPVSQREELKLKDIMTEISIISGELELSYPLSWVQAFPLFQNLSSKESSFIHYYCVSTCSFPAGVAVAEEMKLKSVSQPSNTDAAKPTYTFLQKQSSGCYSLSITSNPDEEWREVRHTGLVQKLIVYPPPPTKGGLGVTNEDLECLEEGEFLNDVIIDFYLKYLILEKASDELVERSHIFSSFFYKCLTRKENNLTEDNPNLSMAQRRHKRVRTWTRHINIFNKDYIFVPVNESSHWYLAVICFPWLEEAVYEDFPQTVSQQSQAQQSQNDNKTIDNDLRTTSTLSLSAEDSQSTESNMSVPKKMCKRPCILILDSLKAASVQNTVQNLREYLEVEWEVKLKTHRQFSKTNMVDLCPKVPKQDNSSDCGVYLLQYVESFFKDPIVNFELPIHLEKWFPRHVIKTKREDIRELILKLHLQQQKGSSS

Caspase-3 = biological target: T6, Caspase-3 (Homo sapiens, UniProt P42574); assay: SAR Analysis of small molecule inhibitors of Sentrin-specific proteases (SENPs) using a Caspase-3 Selectivity assay. [Related pubchem assays (depositor defined):AID2540, AID2599, AID434973, AID489001]; assay type: functional
T6 sequence (P42574 whole entry): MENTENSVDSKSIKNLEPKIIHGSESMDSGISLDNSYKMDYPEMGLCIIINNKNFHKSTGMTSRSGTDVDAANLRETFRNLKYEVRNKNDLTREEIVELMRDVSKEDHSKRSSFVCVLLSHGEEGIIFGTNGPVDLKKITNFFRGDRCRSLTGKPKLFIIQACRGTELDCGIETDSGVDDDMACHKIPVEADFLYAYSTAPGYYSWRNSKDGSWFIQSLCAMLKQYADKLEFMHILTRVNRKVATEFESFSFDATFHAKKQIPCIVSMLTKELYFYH

[10] = biological target: T7, Sentrin-specific protease 8 (Homo sapiens, UniProt Q96LD8); assay: inhibition of human SENP8 cleavage activity – biochemical, luminescence, SAR follow-up (AID 504501); assay type: functional
T7 sequence (Q96LD8 whole entry): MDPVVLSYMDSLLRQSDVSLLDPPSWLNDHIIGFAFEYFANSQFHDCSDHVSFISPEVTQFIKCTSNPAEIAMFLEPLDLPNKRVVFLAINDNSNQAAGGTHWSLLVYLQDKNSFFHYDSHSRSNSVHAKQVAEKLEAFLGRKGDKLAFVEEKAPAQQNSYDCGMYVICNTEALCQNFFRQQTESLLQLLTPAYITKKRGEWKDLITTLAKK

[11] = THP-1 cell cytotoxicity, dose response, cytotoxicity control for non-replicating M. tuberculosis project (AID 489025); assay type: functional
cells = assay type: functional

Sequence of Latent membrane protein 1 (P03230 whole entry): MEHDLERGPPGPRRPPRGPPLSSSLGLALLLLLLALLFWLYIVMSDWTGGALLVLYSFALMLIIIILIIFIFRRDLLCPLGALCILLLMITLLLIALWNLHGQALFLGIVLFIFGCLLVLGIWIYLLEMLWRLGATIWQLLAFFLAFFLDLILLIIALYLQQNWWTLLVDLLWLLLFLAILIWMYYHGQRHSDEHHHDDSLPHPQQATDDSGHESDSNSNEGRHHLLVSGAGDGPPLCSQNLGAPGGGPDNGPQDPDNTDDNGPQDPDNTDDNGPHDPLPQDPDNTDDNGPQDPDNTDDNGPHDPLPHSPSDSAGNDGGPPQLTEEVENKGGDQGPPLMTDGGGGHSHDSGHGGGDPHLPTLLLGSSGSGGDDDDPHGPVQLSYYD

## O=[N+]([O-])c1ccc(CN2CC=C(c3ccccc3)CC2)cc1
[1]
  AC50: 178 µM (active)

## O=C(OCC#CCSc1nnc(-c2cccc3ccccc23)o1)c1cccc2[nH]ccc12
[2]
  IC50: > 49.8 µM (inactive)
Orexin receptor type 2 [3]
  IC50: > 88.8 µM (inactive)
Orexin receptor type 2 [4]
  IC50: 1.39 µM (active)
[5]
  IC50: 14 µM (inactive)
CHO-K1
  IC50: > 66.2 µM (inactive)
[6]
  IC50: 0.506 µM (active)

## COc1cccc(/C=N/NC(=O)c2nnn(-c3nonc3N)c2CN(C)c2ccccc2)c1
[2]
  IC50: > 49.7 µM (inactive)
Orexin receptor type 2 [3]
  IC50: > 88.8 µM (inactive)
Orexin receptor type 2 [4]
  IC50: 5.39 µM (active)
[5]
  IC50: 5.95 µM (active)
CHO-K1
  IC50: > 66.2 µM (inactive)
[6]
  IC50: 0.513 µM (active)

## O=C(NCCCN1CCN(CCCNC(=O)c2cccc(Cl)c2)CC1)c1cccc(Cl)c1
[7]
  EC50: 9.44 µM (active)

## CCOc1ccc(C(=O)Nc2ccc3ccccc3c2)cc1Cl
[8]
  IC50: > 99 µM (inactive)
[9]
  IC50: > 99 µM (inactive)
Caspase-3
  IC50: > 99 µM (inactive)
[10]
  IC50: > 99 µM (inactive)

## c1coc(CNc2nc(N3CCCCC3)nc3ccccc23)c1
[11]
  CC50: 19.6 µM (active)
cells
  IC50: 6.64 µM (active)
[7]
  EC50: 1.79 µM (active)
